Measurements reported in the RepoRT retention time repository (doi:10.1021/acs.analchem.7b00925).

Test: HILIC, Merck SeQuant ZIC-HILIC, 100 × 2.1 mm, 3.5 µm, 25 °C, 0.3 mL/min, estimated dead time 0.73 min; A: water + 0.1% formic acid, pH 3; B: acetonitrile + 0.1% formic acid, pH 3; gradient (min/%B) 0/95 1.5/95 13.5/40 15.5/40 29.7/25 33.5/25 34.5/95 41.5/95
Conditions: stereoisomer not certain

SMILES	LC retention time
Cc1ncc(CO)c(CN)c1O [Pyridoxamine]	13.1 min
Cc1ncc(CO)c(CO)c1O [Pyridoxine]	7.08 min
O=C(O)CNC(=O)C1CCC(=O)N1 (stereo not given) [Pyroglutamylglycine]	4.32 min
C1CCNC1 [Pyrrolidine]	7.71 min
O=C(O)c1ccc2ccccc2n1 [Quinaldic acid]	1.24 min
OCC1OC(O)C(O)C1O (stereo not given) [Ribose]	5 min
Nc1ncnc2c1ncn2C1OC(CSCCC([NH3+])C(=O)[O-])C(O)C1O (stereo not given) [S-adenosylhomocysteine]	10.1 min
NC(CCCCNC(CCC(=O)O)C(=O)O)C(=O)O (stereo not given) [Saccharopine]	10.1 min
CC(C)(C)NCC(O)c1ccc(O)c(CO)c1 (stereo not given) [Salbutamol]	6.57 min
CNCC(=O)O [Sarcosine]	7.67 min
CC(O)C(=O)C1=Nc2c(nc(N)[nH]c2=O)NC1 (stereo not given) [Sepiapterin]	4.63 min
NCCc1c[nH]c2ccc(O)cc12 [Serotonin]	7.73 min
OCC1OC(OC2(CO)OC(CO)C(O)C2O)C(O)C(O)C1O (stereo not given) [Sucrose]	7.32 min
NCCS(=O)(=O)O [Taurine]	7.44 min
CC(CCC(=O)NCCS(=O)(=O)O)C1CCC2C3C(O)CC4CC(O)CCC4(C)C3CC(O)C12C (stereo not given) [Taurocholic acid]	4.75 min
O=c1cc[nH]c(=S)[nH]1 [Thiouracil]	1.93 min
Cc1cn(C2CC(O)C(CO)O2)c(=O)[nH]c1=O (stereo not given) [Thymidine]	2.58 min
C[n+]1cccc(C(=O)[O-])c1 [Trigonelline]	7.26 min
NCCc1c[nH]c2ccccc12 [Tryptamine]	6.1 min
NCCc1ccc(O)cc1 [Tyramine]	6.81 min

Other lines, results leading:

LC retention time	SMILES
6.67 min	C[N+](C)(C)[O-] [Trimethylamine N-oxide]
5.65 min	C[N+](C)(C)C(Cc1c[nH]c2ccccc12)C(=O)[O-] (stereo not given) [Tryptophan betaine]
6.99 min	O=c1ccn(C2OC(COP(=O)(O)O)C(O)C2O)c(=O)[nH]1 (stereo not given) [Uridine mono-phosphate]
4.98 min	O=c1ccn(C2OC(CO)C(O)C2O)c(=O)[nH]1 (stereo not given) [Uridine]
5.99 min	CC(C)C(C(=O)O)[N+](C)(C)C (stereo not given) [Valine betaine]
5.36 min	O=c1[nH]c(=O)c2ncn(C3OC(CO)C(O)C3O)c2[nH]1 (stereo not given) [Xanthosine]
6.03 min	OC1COC(O)C(O)C1O (stereo not given) [Xylose]
7.57 min	NC(CCC(=O)O)C(=O)NC(Cc1ccc(O)cc1)C(=O)O (stereo not given) [a-glutamyl-tyrosine]
1.96 min	CC(CCC(=O)O)C1CCC2C3C(O)CC4CC(O)CCC4(C)C3CC(O)C12C (stereo not given) [cholic acid]
4.23 min	O=C(O)C=C(CC(=O)O)C(=O)O [cis-aconitate]
5 min	O=C(O)C=Cc1cnc[nH]1 [cis-urocanic acid]
2.09 min	Nc1cccc(C(=O)O)c1 [m-Aminobenzoic acid]
1.44 min	O=C(O)CNC(=O)c1ccccc1O [o-Hydroxyhippuric acid]
1.53 min	Nc1ccc(C(=O)O)cc1 [p-Aminobenzoic acid]
1.39 min	COc1cc(/C=C/C(=O)O)ccc1O [trans-Ferulic acid]
